Publication PMC5445237 (CPT: Pharmacometrics & Systems Pharmacology, 2017)
Where two headings read alike, the source gives them in different places.

Columns and labels:
[1] = cited from earlier work
[2] = cited from earlier work; for increase in apixaban exposure: phase I study, regression analysis
[3] = Simulation of apixaban steady-state exposure in VTE treatment population; design: species or system human
[4] = Population pharmacokinetic analysis of apixaban; assay type: in vivo, human; conditions: for CL renal: male, human, plasma, oral
[5] = Exploratory exposure-response evaluation for bleeding and efficacy endpoints; assay type: in vivo, human
[6] = system: cytochrome P450 3A4 (CYP3A4); conditions: minor contributions from CYP1A2, 2C8, 2C9, 2C19, 2J2; cited from earlier work
[7] = among 522 subjects from the acute VTE treatment studies

COc1ccc(-n2nc(C(N)=O)c3c2C(=O)N(c2ccc(N4CCCCC4=O)cc2)CC3)cc1 [apixaban, Apixaban]
adjudicated major bleeding (primary safety endpoint) vs enoxaparin/warfarin ([1]; AMPLIFY study): statistically superior | number of major bleeding events, apixaban and placebo groups ([1]; AMPLIFY-EXT): low and similar | half-life [2]: ~12 h | lower CL/F, NVAF subjects compared to phase I subjects [2]: 14% | oral bioavailability [2]: ~50% | renal clearance as share of total systemic clearance [2]: ~27% | volume of distribution from phase I studies [2]: ~21 L | decrease in exposure after coadministration with rifampin ([2]; healthy subjects, strong inducer of CYP3A4 and P-gp): 50% | increase in exposure after coadministration with ketoconazole ([2]; healthy subjects, strong inhibitor of CYP3A4 and P-gp): 2 fold | predicted median daily AUCss in NVAF subjects ([2]; nonvalvular atrial fibrillation subjects, 5 mg b.i.d.): 3,280 ng*hr/mL | exposure higher following coadministration with ketoconazole than apixaban alone ([2]; phase I clinical studies): ~100% | higher AUC, females compared to males ([2]; phase I studies): 15% | higher AUC, older subjects (>=65 years) compared to younger subjects (18-40 years) ([2]; phase I studies): 32% | increase in apixaban exposure ([2]; mild renal impairment): ~16% | increase in apixaban exposure ([2]; moderate renal impairment): ~29% | increase in apixaban exposure ([2]; severe renal impairment): ~44% | predicted median daily AUCss lower than in NVAF subjects ([3]; 5-mg b.i.d., VTE treatment population vs NVAF subjects): about 25% | fluctuation between peak and trough concentrations ([3]; predicted, VTE treatment subjects): ~2 fold | reduction in Vc/F vs 85 kg reference subject ([4]; 50-kg subject): 24% | increase in Vc/F vs 85 kg reference subject ([4]; 120-kg subject): 20% | impact on apixaban exposure ([4]; age, sex, Asian race (also strong or moderate CYP3A4/P-gp inhibitors)): less than 25% | increase in AUC expected in severe renal impairment ([4]; expected from 27% renal contribution, renal clearance close to zero): ~40% | Asian subjects effect on CL/F (covariate parameter, fractional change) ([4]; final model): −0.168 | Female effect on CLNR/F (covariate parameter, fractional change) ([4]; final model): −0.223 | IIV (interindividual variability, CV%) of CL/F ([4]; final model): 33.1% | IIV (interindividual variability, CV%) of ka ([4]; final model): 50.2% | Q/F (apparent intercompartmental clearance) ([4]; final model): 1.62 L/h | Vp/F (apparent volume of peripheral compartment) ([4]; final model): 19.8 L | Vc/F (apparent volume of central compartment) ([4]; final model, reference VTE treatment subject): 32.1 L | ka, an evening dose ([4]; final population PK model, evening dose): 0.239 h⁻¹ | ka ([4]; final population PK model, morning or afternoon dose): 0.440 h⁻¹ | CL renal ([4]; CLNR/F (apparent nonrenal clearance), final model, reference VTE treatment subject): 42 mL/min | CL renal ([4]; CLR/F (apparent renal clearance), final model, reference VTE treatment subject (60 years, non-Asian male, 85 kg, cCrCL 100 mL/min)): 30.5 mL/min | lower daily AUC vs 60-year-old reference subject ([4]; predicted, 40-year-old male, no change in apparent renal clearance): ~6% | higher daily AUC vs 60-year-old reference subject ([4]; predicted, 80-year-old male, no change in apparent renal clearance): 5% | higher AUC compared to non-Asian subjects ([4]; predicted, Asian subjects): 20% | higher AUC than male subjects ([4]; predicted, female subjects): ~15% | higher AUC than reference subject with normal renal function ([4]; predicted, mild renal impairment (cCrCL of 65 mL/min)): ~17% | higher AUC (exposure) than reference subject ([4]; predicted, severe renal impairment (cCrCL of 15 mL/min)): 56% | decrease in CL/F ([4]; severe renal impairment): 36% | bleeding events (major or clinically relevant nonmajor) ([5]; among 178 subjects from the AMPLIFY-EXT study): eight | VTE/VTE-related death events [5, 7]: five | bleeding events (major or clinically relevant nonmajor) [5, 7]: 25 | metabolism by CYP3A4 [6]: predominantly metabolized
